This is an account of results in PMC12040169 (PLOS Biology, 2025).

The nature of the data set: in vitro. The following applies: human, hela cells, % viability.

Consider `O=C(CN(Cc1ccc(F)cc1)S(=O)(=O)c1ccc(Cl)cc1)Nc1ccc2c(c1)OCCO2` [CBK265346], for which the viability at 28.5 h, 10 µM came out at 90.2%.

With `CCc1cnc(CN(C)C2CCN(Cc3cccc(C(N)=O)c3)C2)o1` (centres unmarked) [CBK305357], the viability at 28.5 h, 10 µM worked out at 90.5%.

With `Cc1ccc(/C(N)=N/OC(=O)CN(C)S(=O)(=O)c2ccc3ccccc3c2)cc1` [CBK267363], the viability at 28.5 h, 10 µM came to 104%.

Take `COc1cncc(C(NC(=O)c2ccc3[nH]nnc3c2)[C@H]2C[C@@H](O)C2)c1` (some centres unmarked) [CBK307049]: the viability at 28.5 h, 10 µM was 108%.

Take `CC(C)(C)c1cc(C(=O)N2CCN(c3ncccn3)CC2)n(Cc2ccc(Cl)cc2Cl)n1` [CBK107294]: the viability at 28.5 h, 10 µM turned out to be 105%.

In the case of `CC(CCc1ccccc1)NC(=O)C(C)Sc1nnc(-c2cccs2)n1C1CC1` (centres unmarked) [CBK297131], the viability at 28.5 h, 10 µM turned out to be 89.5%.

On to `Cc1c(C(=O)N2CC(n3cc(C(C)(C)O)nn3)C2)sc2cccc(F)c12` [CBK306398], for which the viability at 28.5 h, 10 µM is 91.4%.

Turning to `COc1ccc(S(=O)(=O)N2CCC(C(=O)N(C)C(c3cnccn3)c3ccccc3C)CC2)cc1` (centres unmarked) [CBK060210], the viability at 28.5 h, 10 µM turned out to be 99.3%.

`COCc1nnc(NS(=O)(=O)c2ccc(C)cc2)s1` [CBK045523]: the viability at 28.5 h, 10 µM was 86.7%.

On to `COCC(=O)N[C@H]1CCN2C(=O)c3cc(-c4cccc(C)c4C)ccc3NC(=O)[C@@H]2C1` [CBK289562], for which the viability at 28.5 h, 10 µM turned out to be 90.7%.

Regarding `CCOC(=O)c1cnn(-c2cc(Oc3ccccc3)ncn2)c1N` [CBK098284], the viability at 28.5 h, 10 µM was 105%.

For the molecule `CCCc1[nH]nc(O)c1CCc1ccc(OC)cc1OC` [CBK081123], the viability at 28.5 h, 10 µM was determined as 95.5%.

For `CCNC(=O)Nc1ccc(-c2ccncc2)c2ccccc12` [CBK083720], the viability at 28.5 h, 10 µM came out at 88.8%.

`Cc1ccc(NC(=O)c2cnc3scc(C)n3c2=O)cc1` [CBK287454]: the viability at 28.5 h, 10 µM came out at 107%.

`O=C(CC1S/C(=N/N=C/c2cn(Cc3ccccc3)c3ccccc23)NC1=O)Nc1ccccc1` (centres unmarked) [CBK264529]: the viability at 28.5 h, 10 µM stood at 84%.

Regarding `O=C(Cn1cccc(C(=O)NCc2ccccc2)c1=O)Nc1cc(F)ccc1N1CCCC1` [CBK286041], the viability at 28.5 h, 10 µM worked out at 101%.

Regarding `CC(C)c1nc(CC(=O)N2CCOC(c3ccc(F)cc3)C2)cs1` (centres unmarked) [CBK305334], the viability at 28.5 h, 10 µM was found to be 93.9%.

Take `CC(c1ccncn1)N(C)C(=O)NCc1cccc(CN(C)C)c1` (centres unmarked) [CBK307667]: the viability at 28.5 h, 10 µM is 89.9%.

As to `CCc1noc(C)c1C(=O)Nc1ncc(C)s1` [CBK288244], the viability at 28.5 h, 10 µM stood at 95.4%.

On to `CCC(C)C(=O)N1CCC(c2nnc3n2CCCCC3)CC1` (centres unmarked) [CBK282260], for which the viability at 28.5 h, 10 µM was 85.4%.

Regarding `COc1cccc(OCC2CCCN(C(=O)CCc3cnn(C)c3)C2)c1` (centres unmarked) [CBK306931], the viability at 28.5 h, 10 µM is 85%.

For `COc1ccc(C(=O)N2CCC3(CCCN(C(=O)c4cscn4)C3)C2)cc1OC` (centres unmarked) [CBK131659], the viability at 28.5 h, 10 µM is 92%.

Regarding `C[C@@H]1CN(C(=O)c2ccc3[nH]nnc3c2)C[C@H](C)O1` [CBK200369], the viability at 28.5 h, 10 µM worked out at 104%.

For `Cc1c(Cl)cccc1NC(=S)NNC(=O)C(C)Oc1ccc(F)cc1F` (centres unmarked) [CBK266823], the viability at 28.5 h, 10 µM came out at 97.8%.

As to `Cc1ccccc1S(=O)(=O)Nc1nccnc1-c1ccc2c(c1)OCO2` [CBK050941], the viability at 28.5 h, 10 µM amounted to 122%.

With `CC1=CC(=O)Nc2ccccc2S1` [CBK028872], the viability at 28.5 h, 10 µM is 118%.

Take `O=S(=O)(Nc1ncc(Br)c2cccnc12)c1cccc(C(F)(F)F)c1` [CBK073884]: the viability at 28.5 h, 10 µM was determined as 112%.

As for `O=C(O)c1ccc(Br)c(S(=O)(=O)NCc2ccccc2)c1` [CBK263202], the viability at 28.5 h, 10 µM turned out to be 90.8%.

Turning to `Cc1cc(C)nc(NCCC(=O)O)n1` [CBK270154], the viability at 28.5 h, 10 µM turned out to be 89.1%.

As for `O=C(CN1C(=O)[C@@H]2CCCN2c2ncccc21)NC(c1ccccc1)c1ccccc1` [CBK286205], the viability at 28.5 h, 10 µM was 121%.

`O=C(O)CC(NCc1ccccc1)C(=O)Nc1cccc(F)c1` (centres unmarked) [CBK266956]: the viability at 28.5 h, 10 µM came to 92.3%.

For the molecule `O=[N+]([O-])c1ccc(N2CCN(S(=O)(=O)Cc3ccccc3)CC2)cc1N1CCN(Cc2ccccc2)CC1` [CBK264951], the viability at 28.5 h, 10 µM is 101%.

As to `CCCc1ccc(S(=O)(=O)n2ccn(-c3ccc(Oc4ccccc4)cc3)c2=O)cc1` [CBK106648], the viability at 28.5 h, 10 µM stood at 107%.

In the case of `CC(C)(C)OC(=O)N1CCC[C@H]1C(=O)c1cccnc1` [CBK284280], the viability at 28.5 h, 10 µM came out at 99.3%.

For the molecule `O=C(Nc1cccc(C(F)(F)F)c1)N1CCC(n2c(=O)[nH]c3ccccc32)CC1` [CBK149845], the viability at 28.5 h, 10 µM is 84.6%.

For `Cc1cc(CN(C)Cc2c(C)nc3ccc(Cl)cn23)n[nH]1` [CBK281913], the viability at 28.5 h, 10 µM worked out at 108%.

For the molecule `COCCNc1cc(-c2cccc3oc4ccccc4c23)ncn1` [CBK090794], the viability at 28.5 h, 10 µM came out at 101%.

Regarding `Cc1cn(CC(=O)N2CCC3(CCCNC3)C2)c(=O)[nH]c1=O` (centres unmarked) [CBK153231C], the viability at 28.5 h, 10 µM was determined as 95.9%.

As for `CCCc1cc(O)nc(SC(C)C(=O)N2CCOCC2)n1` (centres unmarked) [CBK305030], the viability at 28.5 h, 10 µM turned out to be 86%.

On to `COc1cc2c(cc1OC)C(c1ccccc1)N(Cc1ccc(OCCO)cc1)CC2` (centres unmarked) [CBK286359], for which the viability at 28.5 h, 10 µM came out at 80%.

Regarding `CC(C)C1OC(NCc2ccccc2Cl)=NC1=O` (centres unmarked) [CBK070344], the viability at 28.5 h, 10 µM turned out to be 95.1%.

With `CCC(c1ccc(F)cc1)N(C)C(=O)Cn1cccc(C(=O)Nc2ccc(F)cc2)c1=O` (centres unmarked) [CBK286061], the viability at 28.5 h, 10 µM stood at 88.7%.

Take `COc1ccccc1C(=O)CN1CCC2(CC1)OCCc1c2[nH]c2ccc(F)cc12` [CBK040238]: the viability at 28.5 h, 10 µM turned out to be 97.6%.

`CC1=NNC(=S)NC(C)(C)C1` [CBK021597]: the viability at 28.5 h, 10 µM was 120%.

As to `CCn1cc(C(=O)O)c(=O)c2cc(F)c(N3CCN(C(=S)Nc4cccc5ccccc45)CC3)cc21` [CBK265809], the viability at 28.5 h, 10 µM is 97.4%.

Take `COc1cc(CN2CCC[C@@H]2CN2CCCC2)cc(OC)c1OC` [CBK149100]: the viability at 28.5 h, 10 µM came to 105%.

For `Cc1cccc(C)c1OCc1nnc(SCC(=O)c2ccc(F)cc2)n1C` [CBK269715], the viability at 28.5 h, 10 µM is 91.2%.

As to `Cc1nc2ccc(C(=O)NC3=NC(=O)CS3)cn2c1N(C)Cc1cccs1` [CBK146110], the viability at 28.5 h, 10 µM came out at 86.3%.

Regarding `O=C(OCc1ccc(Sc2ccc([N+](=O)[O-])cc2Cl)cc1)c1cnccn1` [CBK268037], the viability at 28.5 h, 10 µM was 93.4%.

As for `CC(C)CSc1nsc(N)n1` [CBK019938], the viability at 28.5 h, 10 µM was determined as 97.1%.

Turning to `Cc1ccc(-c2nnc(CN3C(=O)C4(CC(=O)N(Cc5ccccc5)C4=O)c4ccccc43)o2)cc1` (centres unmarked) [CBK075749], the viability at 28.5 h, 10 µM amounted to 103%.

As for `CCOC(=O)C1CCN(C(=O)Cn2cnc3ccc(Br)cc3c2=O)CC1` [CBK306070], the viability at 28.5 h, 10 µM worked out at 106%.

With `O=C(Nc1ccc(S(=O)(=O)Nc2nccs2)cc1)C1CC(=O)N(c2ccccc2)C1` (centres unmarked) [CBK264732], the viability at 28.5 h, 10 µM came to 104%.

Turning to `NCCC(=O)N(CCc1cc(C(F)(F)F)cc(C(F)(F)F)c1)c1ccc(Oc2ccccc2)cc1` [CBK002998T], the viability at 28.5 h, 10 µM worked out at 97.7%.

In the case of `O=C(c1cc(F)cc(F)c1)N1CCn2c(nnc2C2CC2)C1` [CBK283772], the viability at 28.5 h, 10 µM stood at 95.9%.

In the case of `O=C(/C=C/c1ccc(Br)cc1)N1CCN(Cc2ccc3c(c2)OCO3)CC1` [CBK074434], the viability at 28.5 h, 10 µM came to 91.5%.

What is called viability is a read-out of living cells in per cent, often relative to untreated cells.
